Publication PMC11133627, “CATH-2-derived antimicrobial peptide inhibits multidrug-resistant Escherichia coli infection in chickens” (Frontiers in Cellular and Infection Microbiology, 2024)
Values after ≈ are worked out from the molar mass of the structure shown. Ends that are not written are not given here.

Experiments:
E. coli (ATCC 8739) [1] = test: Drug-sensitivity test (paper disc, inhibition zone); format: cell-based, Escherichia coli; parameters: key: R: resistant strains; I: intermediate strains; S: sensitive strains; details: 6 mm antibiotic paper on LB agar, 1×10^6 CFU/mL, 24h 37°C, inhibition zone diameter
Protocol: (§1) E. coli (ATCC 8739) and clinical isolates of E. coli (E1, E9, E12, E14, E16, and E18) were stored at the Animal Biochemical Laboratory of Shanxi Agricultural University and grown in Luria-Bertani (LB) broth as previously reported ([Zhao et al., 2021]). Circular 6 mm paper pieces were prepared with filter paper and autoclaved for sterilization. […] Then, 0.5 mL of antibiotic solution was added to 100 sterilized papers. Subsequently, the paper pieces were fully infiltrated and dried in a vacuum drying oven to produce antibiotic susceptibility papers. The E. coli strain was retrieved from the -20°C freezer and activated by incubating it on LB agar media at 37°C for 24h. Individual colonies were selected and transferred to LB liquid media. Thereafter, the E. coli suspension was obtained by shaking at 37°C and 160 r/min for 18h. The obtained suspension was centrifuged at 5000 r/min for 5min, after which the supernatant was discarded, and the bacteria were resuspended in fresh medium to a concentration of 1×10^6 CFU/mL. Two hundred microliters of the bacterial suspension mentioned above was spread evenly onto LB agar medium. Then, the antibiotic susceptibility papers were placed on the medium surface using sterile tweezers. After 24h of incubation at 37°C, the diameter of the inhibition zone was measured to determine the susceptibility of E. coli to antibiotics.

[2] = system: E. coli clinical isolate E18; test: as above; format: cell-based, Escherichia coli; parameters: key: R: resistant strains; I: intermediate strains; S: sensitive strains; details: 6 mm antibiotic paper on LB agar, 1×10^6 CFU/mL, 24h 37°C, inhibition zone diameter
Protocol: as §1

[3] = system: E. coli clinical isolate E9; test: as above; format: cell-based, Escherichia coli; parameters: key: R: resistant strains; I: intermediate strains; S: sensitive strains; details: 6 mm antibiotic paper on LB agar, 1×10^6 CFU/mL, 24h 37°C, inhibition zone diameter
Protocol: as §1

[4] = system: E. coli clinical isolate E1; format: cell-based; parameters: key: R: resistant strains; I: intermediate strains; S: sensitive strains; details: 6 mm antibiotic paper on LB agar, 1×10^6 CFU/mL, 24h 37°C, inhibition zone diameter
Protocol: as §1

[5] = system: E. coli clinical isolate E12; test: Drug-sensitivity test (paper disc, inhibition zone); format: cell-based, Escherichia coli; parameters: key to Drug sensitivity of E. coli E12: R: resistant strains; I: intermediate strains; S: sensitive strains; details: for Drug sensitivity of E. coli E12: 6 mm antibiotic paper on LB agar, 1×10^6 CFU/mL, 24h 37°C, inhibition zone diameter
Protocol: as §1

[6] = system: E. coli clinical isolate E14; test: as above; format: cell-based, Escherichia coli; parameters: key to Drug sensitivity of E. coli E14: R: resistant strains; I: intermediate strains; S: sensitive strains; details: for Drug sensitivity of E. coli E14: 6 mm antibiotic paper on LB agar, 1×10^6 CFU/mL, 24h 37°C, inhibition zone diameter
Protocol: as §1

[7] = system: E. coli clinical isolate E16; test: as above; format: cell-based, Escherichia coli; parameters: key to Drug sensitivity of E. coli E16: R: resistant strains; I: intermediate strains; S: sensitive strains; details: for Drug sensitivity of E. coli E16: 6 mm antibiotic paper on LB agar, 1×10^6 CFU/mL, 24h 37°C, inhibition zone diameter
Protocol: as §1

[8] = system: 6 E. coli strains (E1, E9, E12, E14, E16, E18); format: cell-based, Escherichia coli; details: paper disc test
Protocol: as §1

E. coli (ATCC 8739) [9] = test: microbe, parasite or virus in culture; format: cell-based, Escherichia coli
Protocol: (§2) The minimum inhibitory concentrations (MICs) of the AMPs were determined using the microbroth dilution technique ([van Harten et al., 2021]). One hundred microliters of bacterial suspension at a concentration of 1×10^6 CFU/mL was pipetted into a 96-well plate. Then, 100 μL of AMP or gentamicin at various concentrations was added, while the bacterial suspension without AMPs and blank medium were used as controls.

[10] = system: E. coli clinical isolate E12; test: microbe, parasite or virus in culture; format: cell-based, Escherichia coli
Protocol: as §2

[11] = system: E. coli clinical isolate E14; test: microbe, parasite or virus in culture; format: cell-based, Escherichia coli
Protocol: as §2

[12] = system: E. coli clinical isolate E16; test: microbe, parasite or virus in culture; format: cell-based, Escherichia coli
Protocol: as §2

[13] = system: E. coli clinical isolate E18; test: microbe, parasite or virus in culture; format: cell-based, Escherichia coli
Protocol: as §2

[14] = system: E. coli clinical isolate E9; test: microbe, parasite or virus in culture; format: cell-based, Escherichia coli
Protocol: as §2

[15] = system: E. coli clinical isolate E1; test: microbe, parasite or virus in culture
Protocol: as §2

E. coli (ATCC 8739) [16] = test: Sterilization kinetics assay; format: cell-based, Escherichia coli; details: 8 μg/mL, 1×10^5 CFU/mL, 37°C, colony count
Protocol: The sterilization kinetics assay was performed following previous methods ([Peng et al., 2022]; [Yong Fang et al., 2023]). […] At each time point, 10 μL of sample was diluted in 1 mL of PBS, and 100 μL of the dilution was plated on LB agar plates. After incubating at 37°C for 24h, the number of colonies was counted.

E. coli (E16) = test: Chicken infection with MDR E. coli; format: in vivo
Protocol: Except for the blank control group injected with 500 μL of normal saline, the other four groups were injected with 500 μL of 3×10^9 CFU/mL E. coli (E16) into the pectoral muscles. […] Clinical symptoms and were observed and documented for the chickens in each group after infection. After 72h, the chickens in each group were euthanized and examined for internal organ damage. Paraffin sections were prepared for microscopic examination of pathological changes. Under sterile conditions, 1 g samples of heart, liver, and spleen were collected, and each sample was supplemented with 20 mL of sterile PBS. After thorough grinding, the sample was diluted to the appropriate multiple, and 100 μL of the diluent was spread onto LB agar medium. The plates were incubated for 24h, after which the colonies were counted.

[17] = system: E. coli strains (ATCC 8739 and MDR clinical isolates); format: cell-based, Escherichia coli; details: ATCC 8739, 18 h
Protocol: as §2

E. coli (ATCC 8739) [18] = format: cell-based, Escherichia coli; details: ATCC 8739, 1 h
Protocol: The MICs of the AMPs against E. coli (ATCC 8739) at different temperatures and physiological salt concentrations were evaluated. The thermal stability of the AMPs was assessed by incubating them at a concentration of 500 μg/mL for 1h at 0, 37, and 100°C, using untreated AMPs as a control. The salt ion stability of the AMPs was determined by incubating them at a concentration of 500 μg/mL in solutions of NaCl (150 mM), KCl (4.5 mM), MgCl2 (1 mM), and CaCl2 (2.5 mM) for 1h, using untreated samples as controls. The changes in the MICs of the AMPs were assessed following these experimental procedures.

## CS(=O)(=O)c1ccc([C@@H](O)[C@@H](CF)NC(=O)C(Cl)Cl)cc1 [florfenicol]
E. coli (ATCC 8739) [1]
  Drug sensitivity of E. coli ATCC 8739: S
[2]
  Drug sensitivity of E. coli E18: R
[3]
  Drug sensitivity of E. coli E9: R
[4]
  Drug sensitivity of E. coli E1: R
[5]
  Drug sensitivity of E. coli E12: R
[6]
  Drug sensitivity of E. coli E14: R
[7]
  Drug sensitivity of E. coli E16: R
[8]
  Resistance of the 6 clinical E. coli strains (in words): resistant

## CNC(C)C1CCC(N)C(OC2C(N)CC(N)C(OC3OCC(C)(O)C(NC)C3O)C2O)O1 (stereo not shown) [gentamicin, reference compound]
E. coli (ATCC 8739) [1]
  Drug sensitivity of E. coli ATCC 8739: I
[2]
  Drug sensitivity of E. coli E18: R
[3]
  Drug sensitivity of E. coli E9: I
[4]
  Drug sensitivity of E. coli E1: R
[5]
  Drug sensitivity of E. coli E12: S
[5]; paper disc test
  Drug sensitivity of E. coli E12 (in words): susceptible
[6]
  Drug sensitivity of E. coli E14: S
[6]; paper disc test
  Drug sensitivity of E. coli E14 (in words): susceptible
[7]
  Drug sensitivity of E. coli E16: S
[7]; paper disc test
  Drug sensitivity of E. coli E16 (in words): susceptible
E. coli (ATCC 8739) [9]; Escherichia coli, ATCC8739, 50 μL from fully inhibited wells plated on LB agar, colonies counted after 24h 37°C, read-out: MBC against E. coli ATCC 8739
  MBC: 8 µg/mL (≈ 16.8 µM)
E. coli (ATCC 8739) [9]; Escherichia coli, ATCC8739, microbroth dilution, 1×10^6 CFU/mL, 37°C 18h, turbidity, read-out: MIC against E. coli ATCC 8739
  MIC: 8 µg/mL (≈ 16.8 µM)
[10]; Escherichia coli, 50 μL from fully inhibited wells plated on LB agar, colonies counted after 24h 37°C, read-out: MBC against E. coli E12
  MBC: 4 µg/mL (≈ 8.38 µM)
[10]; Escherichia coli, microbroth dilution, 1×10^6 CFU/mL, 37°C 18h, turbidity, read-out: MIC against E. coli E12
  MIC: 4 µg/mL (≈ 8.38 µM)
[11]; Escherichia coli, 50 μL from fully inhibited wells plated on LB agar, colonies counted after 24h 37°C, read-out: MBC against E. coli E14
  MBC: 4 µg/mL (≈ 8.38 µM)
[11]; Escherichia coli, microbroth dilution, 1×10^6 CFU/mL, 37°C 18h, turbidity, read-out: MIC against E. coli E14
  MIC: 4 µg/mL (≈ 8.38 µM)
[12]; Escherichia coli, 50 μL from fully inhibited wells plated on LB agar, colonies counted after 24h 37°C, read-out: MBC against E. coli E16
  MBC: 4 µg/mL (≈ 8.38 µM)
[12]; Escherichia coli, microbroth dilution, 1×10^6 CFU/mL, 37°C 18h, turbidity, read-out: MIC against E. coli E16
  MIC: 4 µg/mL (≈ 8.38 µM)
[13]; Escherichia coli, 50 μL from fully inhibited wells plated on LB agar, colonies counted after 24h 37°C, read-out: MBC against E. coli E18
  MBC: 128 µg/mL (≈ 268 µM)
[13]; Escherichia coli, microbroth dilution, 1×10^6 CFU/mL, 37°C 18h, turbidity, read-out: MIC against E. coli E18
  MIC: 64 µg/mL (≈ 134 µM)
[14]; Escherichia coli, 50 μL from fully inhibited wells plated on LB agar, colonies counted after 24h 37°C, read-out: MBC against E. coli E9
  MBC: 8 µg/mL (≈ 16.8 µM)
[14]; Escherichia coli, microbroth dilution, 1×10^6 CFU/mL, 37°C 18h, turbidity, read-out: MIC against E. coli E9
  MIC: 8 µg/mL (≈ 16.8 µM)
[15]; Escherichia coli, 18 h, read-out: MIC against E. coli E1
  MIC: 64 µg/mL (≈ 134 µM)
[15]; Escherichia coli, 24 h, read-out: MBC against E. coli E1
  MBC: 64 µg/mL (≈ 134 µM)
E. coli (ATCC 8739) [16]
  Time for complete bacterial eradication: ≤ 60 min
E. coli (E16); 200 μg/mL, 500 μL into pectoral muscle 4h after 1.5×10^9 CFU E16
  3-day mortality rate: 10%
E. coli (E16); after 3 days of infection, vs infected untreated
  Bacterial loads in the heart, liver and spleen (in words): significantly reduced
E. coli (E16); autopsy, vs E. coli infection group
  Organ lesions of heart, liver, intestine (in words): significant reduction in organ lesions

## RFGRFLRKIRRMRLK [C2-2]
E. coli (ATCC 8739) [9]; ATCC 8739, 18 h
  MIC against E. coli ATCC 8739: 8 µg/mL
E. coli (ATCC 8739) [9]; ATCC 8739, 24 h
  MBC against E. coli ATCC 8739: 8 µg/mL
[10]; clinical isolate E12, 18 h
  MIC against E. coli E12: 2 µg/mL
[10]; clinical isolate E12, 24 h
  MBC against E. coli E12: 2 µg/mL
[11]; clinical isolate E14, 18 h
  MIC against E. coli E14: 8 µg/mL
[11]; clinical isolate E14, 24 h
  MBC against E. coli E14: 8 µg/mL
[12]; clinical isolate E16, 18 h
  MIC against E. coli E16: 8 µg/mL
[12]; clinical isolate E16, 24 h
  MBC against E. coli E16: 8 µg/mL
[13]; clinical isolate E18, 18 h
  MIC against E. coli E18: 4 µg/mL
[13]; clinical isolate E18, 24 h
  MBC against E. coli E18: 4 µg/mL
[14]; clinical isolate E9, 18 h
  MIC against E. coli E9: 2 µg/mL
[14]; clinical isolate E9, 24 h
  MBC against E. coli E9: 2 µg/mL
[15]; 50 μL from fully inhibited wells plated on LB agar, colonies counted after 24h 37°C
  MBC against E. coli E1: 8 µg/mL
[15]; microbroth dilution, 1×10^6 CFU/mL, 37°C 18h, turbidity
  MIC against E. coli E1: 4 µg/mL
[17]
  MBC range over E. coli strains: 2 to 8 µg/mL
  MIC range over E. coli strains: 2 to 8 µg/mL
E. coli (ATCC 8739) [18]
  MIC against E. coli (ATCC 8739), Salt Stability CaCl2 (2.5 mM): 4 µg/mL
  MIC against E. coli (ATCC 8739), Salt Stability KCl (4.5 mM): 0.5 µg/mL
  MIC against E. coli (ATCC 8739), Salt Stability MgCl2 (1 mM): 0.5 µg/mL
  MIC against E. coli (ATCC 8739), Salt Stability NaCl (150 mM): 0.5 µg/mL
  MIC against E. coli (ATCC 8739), Thermal Stability 0°C: 8 µg/mL
  MIC against E. coli (ATCC 8739), Thermal Stability 37°C: 8 µg/mL
  MIC against E. coli (ATCC 8739), Thermal Stability 100°C: 8 µg/mL

## penicillin
E. coli (ATCC 8739) [1]
  Drug sensitivity of E. coli ATCC 8739: S
[2]
  Drug sensitivity of E. coli E18: R
[3]
  Drug sensitivity of E. coli E9: R
[4]
  Drug sensitivity of E. coli E1: R
[5]
  Drug sensitivity of E. coli E12: R
[6]
  Drug sensitivity of E. coli E14: R
[7]
  Drug sensitivity of E. coli E16: R
[8]
  Resistance of the 6 clinical E. coli strains (in words): resistant
